Test results from article PMC9145622, “Synthesis, Biological Evaluation, and Docking Studies of Antagonistic Hydroxylated Arecaidine Esters Targeting mAChRs” (Molecules, 2022).

Experiments:
[1] = molecular target: T1, hM2 (Homo sapiens, UniProt P08172); test: Competitive [3H]NMS radioligand binding, CHO-K1 membranes expressing hM2; conditions: [3H]NMS, CHO-hM2 cell membrane preparations; >1000 values from two independent (single-concentration) experiments; read-out: Affinity: Ki ± SD hM2
T1 sequence (P08172 1-466): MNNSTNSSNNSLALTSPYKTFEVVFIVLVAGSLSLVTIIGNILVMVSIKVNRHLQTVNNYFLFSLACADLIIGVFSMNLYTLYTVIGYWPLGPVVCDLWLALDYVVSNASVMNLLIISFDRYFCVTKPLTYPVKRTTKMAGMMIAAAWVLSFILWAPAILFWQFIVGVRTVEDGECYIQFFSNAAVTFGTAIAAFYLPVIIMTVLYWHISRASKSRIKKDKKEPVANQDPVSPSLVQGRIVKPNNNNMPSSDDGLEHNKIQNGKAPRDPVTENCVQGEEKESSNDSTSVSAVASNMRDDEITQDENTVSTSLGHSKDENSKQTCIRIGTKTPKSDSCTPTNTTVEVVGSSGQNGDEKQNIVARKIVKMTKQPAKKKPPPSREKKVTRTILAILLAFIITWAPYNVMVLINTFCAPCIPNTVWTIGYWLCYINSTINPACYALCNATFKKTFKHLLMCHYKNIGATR
Excerpt: (§1) The arecaidine esters’ affinities towards the human mAChR subtypes hM1–hM5 were studied in a competitive radioligand binding assay using CHO-K1 cell membrane homogenates expressing a single mAChR subtype and tritiated N-methyl scopolamine methyl chloride ([^3H]NMS). To speed up our affinity testing regime, we subjected all test substances to preliminary single-concentration displacement assays, as described previously. Compounds with percent displacements below 75% at any of the subtypes were dropped from further investigations (Table S1). For compounds meeting the percent displacement threshold (8c, 10b, 10c, 17b, 18b, and 25), inhibition constants (Ki) were assessed in dose-dependent displacement experiments (Table 2).
(§2) Cell membranes bearing hM1-hM5 receptors were prepared as described previously. Briefly, stably transfected CHO-K1 cells were grown to at least 80% confluency in T175 flasks, washed with ice-cold DPBS, and scraped into a mixture of ice-cold 2 mL 10 mM Tris-HCl, 1 mM EDTA-buffer, pH 7.4 and 200 µL protease inhibitor. A cell homogenate was prepared by passing the cell suspension through a G29 needle. The cell homogenates corresponding to two T175 flasks were combined and subsequently centrifuged (10 min, 1000× g, 4 °C). Ultracentrifugation of the supernatant (1 h, 100,000× g, 4 °C) yielded a membrane pellet, which was suspended in 250 µL 50 mM Tris-HCl buffer, pH 7.4 and stored at −80 °C.
(§3) Then, 5 µL of test compound in DMSO, 50 µL of [^3H]NMS in assay buffer, and 445 µL of membrane suspension in assay buffer were incubated for 90 min at 23 °C in PP tubes. Maximum binding was measured by using 5 µL DMSO, and nonspecific binding was measured by using 5 µL of 1 µM scopolamine in DMSO. The effective concentration of [^3H]NMS was 0.2 nM, 0.3 nM, 0.8 nM, 0.2 nM, and 1 nM for M1–M5 and 4–30 µg membrane were used per tube. The membrane-bound radioactivity was recovered by filtration through Whatman™ GF/B glass fiber filters presoaked in aqueous 0.1% PEI using an M-36 tygon tubed cell harvester (Brandel®, Gaithersburg, MD, USA). Membranes were washed three times with ice-cold washing buffer (50 mM Tris, pH 7.4) before being dried, transferred to 2 mL scintillation cocktail (UltimaGold™, high flashpoint LSC cocktail, PerkinElmer, Waltham, MA, USA) and counted in a β-counter (Hidex TDCR liquid scintillation counter in CPM mode). IC50 values were calculated by a variable slope logistic regression using at least five distinct concentrations of test compounds, pipetted in triplicates.

[2] = molecular target: T2, hM1 (Homo sapiens, UniProt P11229); test: Competitive [3H]NMS radioligand binding, CHO-K1 membranes expressing hM1; conditions: for Ki: [3H]NMS, CHO-hM1 cell membrane preparations, read-out: Affinity: Ki ± SD hM1; for x-Fold Selectivity for hM1 vs. hM2: ratio of the Ki values hM2/hM1; for x-Fold Selectivity for hM1 vs. hM3: ratio of the Ki values hM3/hM1; for x-Fold Selectivity for hM1 vs. hM4: ratio of the Ki values hM4/hM1; for x-Fold Selectivity for hM1 vs. hM5: ratio of the Ki values hM5/hM1
T2 sequence (P11229 1-460): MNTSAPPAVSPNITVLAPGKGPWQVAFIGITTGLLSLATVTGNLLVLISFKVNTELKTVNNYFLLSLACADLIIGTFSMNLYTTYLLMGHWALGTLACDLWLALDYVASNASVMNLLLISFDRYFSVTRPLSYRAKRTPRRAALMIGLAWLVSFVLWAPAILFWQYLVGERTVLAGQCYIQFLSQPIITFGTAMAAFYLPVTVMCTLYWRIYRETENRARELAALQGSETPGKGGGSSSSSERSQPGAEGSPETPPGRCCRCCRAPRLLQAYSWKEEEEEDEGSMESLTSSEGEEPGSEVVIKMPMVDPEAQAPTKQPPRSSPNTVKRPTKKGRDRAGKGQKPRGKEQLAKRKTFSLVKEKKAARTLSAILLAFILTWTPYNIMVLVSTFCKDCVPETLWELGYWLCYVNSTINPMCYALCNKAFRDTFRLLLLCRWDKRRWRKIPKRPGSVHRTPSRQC
Excerpt: as §1, §2, §3

| SMILES | Ki [1] [nM] | Ki [2] [nM] | x-Fold Selectivity for hM1 vs. hM2 [2] [x-fold] | x-Fold Selectivity for hM1 vs. hM3 [2] [x-fold] | x-Fold Selectivity for hM1 vs. hM4 [2] [x-fold] | x-Fold Selectivity for hM1 vs. hM5 [2] [x-fold] | melting point [°C] |
| --- | --- | --- | --- | --- | --- | --- | --- |
| CN1CCC=C(C(=O)OCc2ccc(CO)cc2)C1 [Compound 8c, 4-(hydroxymethyl)benzyl 1-methyl-1,2,5,6-tetrahydropyridine-3-carboxylate] | > 1000 | 525 ± 36 | >1.9 | 1.3 | 1.3 | 0.8 | – |
| CN1CCC=C(C(=O)OC(c2ccccc2)c2ccc(CO)cc2)C1 (stereo not shown) [Compound 10c, (4-(hydroxymethyl)phenyl)(phenyl)methyl 1-methyl-1,2,5,6-tetrahydropyridine-3-carboxylate] | 980 ± 32 | 74 ± 3.2 | 13.2 | 2.0 | 1.3 | 1.0 | – |
| CN1CCC=C(C(=O)OC(c2ccccc2)c2cccc(O)c2)C1 (stereo not shown) [Compound 17b, (3-hydroxyphenyl)(phenyl)methyl 1-methyl-1,2,5,6-tetrahydropyridine-3-carboxylate] | 172 ± 20 | 5.5 ± 0.5 | – | 3.7 | 3.3 | 2.0 | 143 to 144 |
| CN1CCC=C(C(=O)OCc2cccc(O)c2)C1 [Compound 18b, 3-hydroxybenzyl 1-methyl-1,2,5,6-tetrahydropyridine-3-carboxylate] | > 1000 | 259 ± 75 | – | 0.7 | 2.4 | 0.35 | 115 to 119 |
| CN1CCC=C(C(=O)OCC(O)(c2ccccc2)c2ccccc2)C1 [Compound 25, 2-hydroxy-2,2-diphenylethyl 1-methyl-1,2,5,6-tetrahydropyridine-3-carboxylate] | > 1000 | 231 ± 60 | >4.3 | 1.2 | 0.9 | 1.2 | 150 to 153 |
